Test [1] has as its system MDA-MB-231. Put plainly: Soft agar colony formation assay. Format: cell-based. The note with it: MDA-MB-231; soft agar.
In the next test the test system is MCF-7. Put plainly: Soft agar colony formation assay. In kind it is cell-based. The note with it: MCF-7; soft agar.
A further test has as its system MDA-MB-468. The test can be described thus: Soft agar colony formation assay. Format: cell-based. The note with it: MDA-MB-468; soft agar.
For test [2], the system named is Epithelial Mesenchymal Transition (EMT) markers in MDA-MB-231 cells. Put plainly: Western blot of EMT markers. Format: cell-based. The note with it: cell line not named in the sentence (FIG. 3.24, FIG. 3.25). How it is done: Proteins were quantified with the Pierce BCA Protein Assay Kit (Thermo Scientific, USA) following cell lysis. SDS-PAGE was prepared at a concentration of 10% for all studied proteins. All samples were loaded at 40 μg per 1.5 mm 15 wells comb. Running of stained samples was performed using two steps gel electrophoresis (60 Volts for 20 minutes followed by 120 Volts for 1 hour). Afterwards, gels were transferred into PVDF membrane at 100 Voltage for 1.5-2.0 hours using wet transfer. Following transfer, PVDF membranes were blocked with 5% skimmed milk and washed three times. Primary antibodies (Table 2.2) were prepared, then PVDF membrane were incubated with them overnight with gentle shaking at 4° C. Afterwards, membranes were washed three times and incubated with their respective secondary antibodies for 1-2 hours with gentle shaking at room temperature. Pierce™ ECL Western Blotting Substrate was used to detect proteins by chemiluminescence. Blots were imaged using the ibrightCL1000 imaging system.
In general terms: Immunoblotting shows a protein as a band on a membrane.

Test [3] relates to MDA-MB-231. Put plainly: Migration (wound healing) assay. In kind it is cell-based. The note with it: for activity at 5 µM: read-out: % migration; for IC50: 24 hours of treatment, 5 concentrations, two independent experiments, read-out: Migratory IC50 MDA-MB-231. How it is done:
MDA-MB-231 cells were seeded in 12-wells plates at a concentration of 500,000 cells/well and were incubated in complete RPMI culture medium until covering the well and reaching around 90-100% confluency. Following, cells were serum starved for 4 hours and a 200 μl pipette tip was used to create the scratch followed by cell washing with PBS twice. […] Microscopic pictures were then taken, and cell migration was quantified based on the wound diameter at 24 hours minus the initial diameter at time zero, as represented by the following equation: % Migration=[…]

In test [4] the test system is MDA-MB-231. The test can be described thus: Cell cycle analysis (flow cytometry). In kind it is cell-based. The note with it: 10 μM, 48 hours post treatment; N=1. How it is done: The MDA-MB-231, MDA-MB-468 and MCF-7 cell lines were seeded on 6-well plates at a concentration of 200,000 cells per well and were maintained in culture supplemented with 10% fetal bovine serum for 8-10 hours. The same day, media was removed and cells were incubated overnight with serum free media. Second day, cells were treated with the compounds. Adherent and floating cell populations were harvested at 48 hours after treatment with different concentrations of the compounds and counted.
Afterward, cells were washed with cold PBS once, centrifuged at 4° C. and fixed with 1.5 ml cold 70% ethanol added drop wise while slowly vortexing. Samples were then stored at […] Following fixation, cells were pelleted and washed with ice-cold PBS. Equal aliquots were collected and resuspended in 300 μl of Tali® Cell Cycle Kit and incubated at 37 C. with slow shaking speed for 30 minutes in the dark. Accuri C6 flow cytometer (BD Biosciences, USA) was used to analyze the cells. The FlowJo V10 software was used to process and evaluate the results.
On the technique in general: In flow cytometry, cells or beads pass a laser one at a time.

Test [5] concerns Chorioallantoic membrane (CAM) of the chicken embryos. Put plainly: Chorioallantoic membrane (CAM) angiogenesis assay. Format: in vivo. The note with it: treated at embryonic day 4, read at day 8; 2 μl of 5 mM stock under coverslip. How it is done:
Fertilized white Leghorn chicken embryos (Arab Qatari for Poultry Production, Qatar) were purchased and incubated at 60% humidity at 37° C. in MultiQuip incubator. Ethics approval was obtained from Qatar University-Institutional Bio-safety committee. The embryos were treated in ovo at embryonic day 4 with three of the synthesized chalcones (5, 13 and 14) compared to DMSO treated controls. Briefly, a small cut was made at the top of the shells of the eggs and each treatment was added under a round coverslip at 2 μl of 5 mM stock solutions. Microscopic pictures were taken at embryonic day 8. Embryos treated with compounds 13 and 14 were sacrificed at embryonic day 9 for clinical observations. Quantification of blood vessels was performed manually and the different treatment groups were compared.

[6] abbreviates: Homo sapiens, MDA-MB-231, 5 μM, 24 hours post treatment, control = 100, Mean ± SEM (N = 2 × 2).

One may read the IC50 as the point on the concentration scale where inhibition reaches its midpoint.

Read-outs that look alike come from different tables or passages of the source.

As to `COc1cc2c(c(OC)c1OC)-c1ccc(OC)c(=O)cc1[C@@H](NC(C)=O)CC2` [Colchicine, reference compound], the “colony formation (in words)” value with MDA-MB-231 [1], in the test with MCF-7 and with MDA-MB-468 was “significantly inhibited the ability of cells to form colonies” throughout. In addition, in test [2], the “expression of β-catenin and its phosphorylated form” value is given as “upregulated phospho-3-catenin”. Further, the activity at 5 µM with MDA-MB-231 [3] (Homo sapiens, MDA-MB-231, 24 h) was determined as 47.45 ± 0.25%.
As to `O=C(/C=C/c1ccc(N2CCCC2)cc1)c1cccc(Cl)c1` [Compound 1, (E)-1-(3-chlorophenyl)-3-(4-(pyrrolidin-1-yl)phenyl) prop-2-en-1-one], the activity at 5 µM in the test on MDA-MB-231 [3] (setting [6]) turned out to be 74.7 ± 5.8%.
For `CS(=O)(=O)c1ccc(C(=O)/C=C/c2ccc(N3CCCC3)cc2)cc1` [Compound 2, (E)-1-(4-(methylsulfonyl)phenyl)-3-(4-(pyrrolidin-1-yl)phenyl) prop-2-en-1-one], in the test on MDA-MB-231 [4], the “cell cycle shifts (in words)” value is reported as “slight S phase arrest”. The activity at 5 µM in the test on MDA-MB-231 [3] (setting [6]) is 67.3 ± 53.9%.
With `CS(=O)(=O)c1ccc(C(=O)/C=C/c2ccc(N3CCOCC3)cc2)cc1` [Compound 3, (E)-1-(4-(methylsulfonyl)phenyl)-3-(4-morpholinophenyl) prop-2-en-1-one], in the test on MDA-MB-231 [3] (setting [6]), the activity at 5 µM turned out to be 65.7 ± 52.4%.
Turning to `CS(=O)(=O)c1ccc(C(=O)/C=C/c2ccc(N3CCCCC3)cc2)cc1` [Compound 4, (E)-1-(4-(methylsulfonyl)phenyl)-3-(4-(piperidin-1-yl)phenyl) prop-2-en-1-one], the activity at 5 µM in the test with MDA-MB-231 [3] (setting [6]) was determined as 70.7 ± 55.9%.
As to `CSc1ccc(C(=O)/C=C/c2ccc(N3CCOCC3)cc2)cc1` [Compound 5, (E)-1-(4-(methylthio)phenyl)-3-(4-morpholinophenyl) prop-2-en-1-one], the “cell cycle shifts (in words)” value with MDA-MB-231 [4] is recorded as “no major cell cycle shifts”. Further, in test [5], the “inhibition of blood vessels development vs control” value worked out at 68.49±4.42%. Moreover, in the test with MDA-MB-231 [3] (setting [6]), the activity at 5 µM came out at 64.3 ± 3.32%. The IC50 in the test with MDA-MB-231 [3] (Homo sapiens, MDA-MB-231) came to 6140 ± 620 nM.
Take `CSc1ccc(C(=O)/C=C/c2ccc(N3CCCCC3)cc2)cc1` [Compound 6, (E)-1-(4-(methylthio)phenyl)-3-(4-(piperidin-1-yl)phenyl) prop-2-en-1-one]: the activity at 5 µM in the test with MDA-MB-231 [3] (setting [6]) turned out to be 69.5 ± 3.92%.
`CSc1ccc(C(=O)/C=C/c2ccc(N3CCCC3)cc2)cc1` [Compound 7, (E)-1-(4-(methylthio)phenyl)-3-(4-(pyrrolidin-1-yl)phenyl) prop-2-en-1-one]: the activity at 5 µM in the test on MDA-MB-231 [3] (setting [6]) is 71.8 ± 0.06%.
For the molecule `COc1cccc(C(=O)/C=C/c2ccc(N3CCCC3)cc2)c1` [Compound 8, (E)-1-(3-methoxyphenyl)-3-(4-(pyrrolidin-1-yl)phenyl) prop-2-en-1-one], the activity at 5 µM in the test with MDA-MB-231 [3] (setting [6]) is 48.7 ± 2.85%. Also, the IC50 in the test with MDA-MB-231 [3] (Homo sapiens, MDA-MB-231) came out at 3000 ± 460 nM.
For the molecule `COc1cccc(C(=O)/C=C/c2ccc(N3CCCCC3)cc2)c1` [Compound 9, (E)-1-(3-methoxyphenyl)-3-(4-(piperidin-1-yl)phenyl)prop-2-en-1-one], the “cell cycle shifts (in words)” value in the test with MDA-MB-231 [4] is reported as “no major cell cycle shifts”. For the same molecule, in the test on MDA-MB-231 [3] (setting [6]), the activity at 5 µM was determined as 75 ± 0.86%.
For `O=C(/C=C/c1ccc(N2CCCC2)cc1)c1ccc2c(c1)OCO2` [Compound 10, (E)-1-(benzo[d][1,3]dioxol-5-yl)-3-(4-(pyrrolidin-1-yl)phenyl)prop-2-en-1-one], the activity at 5 µM in the test on MDA-MB-231 [3] (setting [6]) was found to be 53.5 ± 5.98%. Moreover, the IC50 in the test with MDA-MB-231 [3] (Homo sapiens, MDA-MB-231) was determined as 4800 ± 720 nM.
Take `O=C(/C=C/c1ccc(N2CCOCC2)cc1)c1ccc(N2CCNCC2)cc1` [Compound 11, (E)-3-(4-morpholinophenyl)-1-(4-(piperazin-1-yl)phenyl) prop-2-en-1-one]: the activity at 5 µM with MDA-MB-231 [3] (setting [6]) is 75.1 ± 0.86%.
In the case of `COc1ccccc1C(=O)/C=C/c1ccc(N(CCCl)CCCl)cc1` [Compound 12, (E)-3-(4-(Bis(2-chloroethyl)amino)phenyl)-1-(2-methoxyphenyl) prop-2-en-1-one], the IC50 in the test on MDA-MB-231 [3] was determined as 1990 ± 190 nM; in the test with MDA-MB-231 [3] (Homo sapiens, MDA-MB-231, 24 h), 2000 ± 188 nM. Further, the activity at 5 µM in the test on MDA-MB-231 [3] (setting [6]) came to 32.8 ± 0.68%.
Take `CC(=O)O[C@H]1C(=O)[C@@]2(C)[C@H]([C@H](OC(=O)c3ccccc3)[C@]3(O)C[C@H](OC(=O)[C@H](O)[C@@H](NC(=O)c4ccccc4)c4ccccc4)C(C)=C1C3(C)C)[C@]1(OC(C)=O)CO[C@@H]1C[C@@H]2O` [Paclitaxel, reference compound]: the “colony formation (in words)” value in the test with MDA-MB-231 [1], with MCF-7 and in the test on MDA-MB-468 was “significantly inhibited the ability of cells to form colonies” throughout. The activity at 5 µM in the test on MDA-MB-231 [3] (setting [6]) was determined as 39.3 ± 5.16%. In the test with MDA-MB-231 [3] (Homo sapiens, MDA-MB-231), the IC50 is 2010 ± 220 nM.
